{"source": "patent US20210032598A1", "about": "“ACTIVATION-INDUCED TISSUE-EFFECTOR CELLS SUITABLE FOR CELL THERAPY AND EXTRACELLUAR VESICLES DERIVED THEREFROM” (Capricor, Inc., priority 2018, published 2021)", "key": {"[1]": {"tested_on": "β-catenin levels in explant-derived cells (EDCs)", "assay": "β-catenin ELISA in explant-derived cells (EDCs)", "type": "cell-based, human", "settings": "EDCs from Donor1 and Donor12; BIO for 72 hours compared with sphere formation"}, "[2]": {"tested_on": "β-catenin levels in immortalized CDCs", "assay": "Total β-catenin ELISA in immortalized CDCs", "type": "cell-based, human", "settings": "SV40 T+t immortalized CDCs from Donor2; 5 μM BIO for 72 hours vs 0 μM", "method": "(§1) Cell lysate and protein assay. 4×10^5 cells were collected and pelleted at 1,000 rpm for 5 min at 4° C. Cell pellets were thoroughly mixed with 1× lysis buffer (Affymetrix eBioscience InstantOne ELISA kit) by vortexing and rotating for 10 min at room temperature. Protein lysate was isolated from the cell lysate mixture after centrifugation at 14,000 rpm for 15 min at 4° C. Protein concentration was determined by DC™ Protein Assay kit (Bio-Rad).\n(§2) ELISA. Protein collection and protein concentration determination were as described above. Total β-catenin ELISA was performed according the protocol described with final sample concentration of 0.01 mg/ml and positive control of 0.1 mg/ml (ThermoFisher eBioscience InstantOne™ ELISA)."}, "β-catenin levels in CDCs": {"tested_on": "β-catenin levels in CDCs", "assay": "Total β-catenin ELISA in CDCs", "type": "cell-based, human", "method": "(§3) Referring to FIG. 9B, CDCs from Donor 5 were treated with different concentrations of BIO (Sigma-Aldaich, Cat #B1685), a GSK3β inhibitor, for 72 hours. The cells were then collected and lysed with 1× lysis buffer supplied Total β-catenin ELISA (Affymetrix eBioscience InstantOne™ ELISA, Cat. #85-86141-11). Total β-catenin ELISA was performed as per manufacturer's instructions, except that 0.01 mg/mL final protein concentration was used in the assay.\nReferring to FIG. 10, the effect of BIO (as measured by sustained β-catenin activation per ELISA) was measured in CDCs from Donor10. Zero hour is immediately drug wash-off time point following a 72 hour of 5 μM BIO treatment period.\nas §1, §2"}, "[3]": {"tested_on": "β-catenin levels in kidney cortex cells", "assay": "β-catenin levels in kidney cortex cells", "type": "cell-based", "settings": "FIG. 18B"}, "CD90 expression in CDCs": {"tested_on": "CD90 expression in CDCs", "assay": "Flow cytometry of CD90 expression in CDCs", "type": "cell-based, human", "method": "Referring to FIG. 2, CDCs from two donors (Donor1 and Donor12) were prepared as described herein. The attached CDCs were treated with 30 μM CHIR (Selleckchem, Cat. #S1263), a GSK3β inhibitor, or with no treatment for 72 hours. The cells were then collected, washed with 1% bovine serum albumin (BSA) in 1× phosphated-buffered saline (PBS), and stained with FITC Mouse Anti-Human CD90 (BD Biosciences, Cat. #555595). Flow cytometry was then conducted in BD FACSCanton™ II machine to measure CD90 expression in cells.\nas §3\nFlow cytometry. Cells were harvested and counted (2×10^5 cells per condition). Cells were washed with 1% bovine serum albumin (BSA) in 1× Phosphated-buffered saline (PBS), and stained with the appropriate antibody (BD Pharmingen) for 1 hr at 4° C. The cells were then washed again and resuspended in 1% BSA in 1×PBS. BD Cytofix/Cytoperm™ kit was used for cell permeabilization before staining, such as LRP5/6 staining. […]"}, "[4]": {"tested_on": "mice with acute myocardial infarction", "assay": "Mouse model of acute myocardial infarction, change in left ventricular ejection fraction (echocardiography)", "type": "in vivo, mouse (SCID beige)", "settings": "0.1 mg drug injected to heart; measured three weeks after surgery", "procedure": "Briefly, 8-week old male severe combined immunodeficient (SCID) beige mice were anesthetized with isoflurane. Following surgical preparation, a 2 cm vertical incision was performed in the midclavicular line for a lateral thoracotomy. The left anterior descending was ligated using 7-0 silk. Animals then received intramyocardial injections of injected at two peri-infarct sites with 10^5 cells (or phosphate buffered saline as a vehicle) in a total of 20 μl (10 μl/site). Echocardiography measurements were taken (to measure change left ventricular ejection fraction) at day 1 post and week 3 post infarction.\nAcute myocardial infarction was applied to the three-month-old male severe combined immunodeficient (SCID)—beige mice as previously described. 1×10^5 desired cells or 20 μl of 14 mM drug (BIO or JW67) or exosomes were injected to the SCID heart for rescuing.\nEchocardiography. Echocardiography study was performed in the SCID beige in 24 hr (baseline) and 3 weeks after surgery using Vevo 3100 or 770 Imaging System (Visual Sonics) as described^8. The average of the left ventricular ejection fraction was analyzed from multiple left ventricular end-diastolic and left ventricular end-systolic measurements."}, "[5]": {"tested_on": "CD90 expression in immortalized CDCs", "assay": "Flow cytometry of CD90 expression in immortalized CDCs", "type": "cell-based, human", "settings": "Wnt3a for 72 hours, vs vehicle", "method": "Referring to FIG. 3-5, CDCs from immortalized Donor2 were plated on either fibronectin (FN; VWR, Cat. #356009)-coated or CellBIND® (CB)-coated flasks. Attached cells were treated with Wnt3a or with PBS vehicle (ddH2O) for 72 hours. The cells were then analyzed using flow cytometry for CD90 expression with the same protocol as described herein.\nFlow cytometry. Cells were harvested and counted (2×10^5 cells per condition). Cells were washed with 1% bovine serum albumin (BSA) in 1× Phosphated-buffered saline (PBS), and stained with the appropriate antibody (BD Pharmingen) for 1 hr at 4° C. The cells were then washed again and resuspended in 1% BSA in 1×PBS. BD Cytofix/Cytoperm™ kit was used for cell permeabilization before staining, such as LRP5/6 staining. The flow cytometry was performed in BD FACSCanto™ II machine."}}, "data": [{"molecule": "O=C1Nc2cc(Br)ccc2/C1=C1/Nc2ccccc2/C1=N\\O", "note": "[BIO, 6-bromoindirubin-3′-oxime]", "values": [{"measurement": "β-catenin expression", "setting": "[1]", "result": "equal or better enhanced β-catenin expression"}, {"measurement": "β-catenin restoration", "setting": "[2]", "result": "successful β-catenin restoration"}, {"measurement": "levels of β-catenin", "setting": "β-catenin levels in CDCs; CDCs from Donor5, different concentrations of BIO for 72 hours", "result": "increased with increasing BIO concentration"}, {"measurement": "time of peak β-catenin activation after drug washout", "setting": "β-catenin levels in CDCs; CDCs from Donor10, after 72 hour 5 μM BIO treatment", "result": 24, "unit": "h"}, {"measurement": "duration of effect of BIO treatment after washout", "setting": "β-catenin levels in CDCs; FIG. 10, β-catenin activation per ELISA", "result": "at least 24 hours"}, {"measurement": "β-catenin restoration", "setting": "β-catenin levels in CDCs; non-potent CDCs from Donor5, 10 μM BIO for 72 hours vs 0 μM", "result": "successful β-catenin restoration"}, {"measurement": "β-catenin restoration", "setting": "β-catenin levels in CDCs; non-potent CDCs from Donor6-2, 5 μM BIO for 72 hours vs control vehicle", "result": "successful β-catenin restoration"}, {"measurement": "β-catenin levels", "setting": "[3]", "result": "further increases β-catenin levels"}, {"measurement": "CD90 levels", "setting": "CD90 expression in CDCs; CDCs from Donor5, increasing BIO concentrations", "result": "decreasing CD90 levels with increasing BIO concentrations"}, {"measurement": "cardiac recovery (cardiac ejection fraction change)", "setting": "[4]", "result": "improves cardiac recovery"}]}, {"molecule": "Cc1cnc(-c2cnc(NCCNc3ccc(C#N)cn3)nc2-c2ccc(Cl)cc2Cl)[nH]1", "note": "[CHIR, 6-[[2-[[4-(2,4-Dichlorophenyl)-5-(5-methyl-1H-imidazol-2-yl)-2-pyrimidinyl]amino]ethyl]amino]-3-pyridinecarbonitrile]", "values": [{"measurement": "CD90 levels", "setting": "CD90 expression in CDCs; 30 μM CHIR for 72 hours, CDCs from Donor1 and Donor12, vs no treatment", "result": "decreased the CD90 levels"}]}, {"molecule": "O=C1Nc2ccccc2C12OCC1(CO2)COC2(OC1)C(=O)Nc1ccccc12", "note": "(centres unmarked) [JW67, Trispiro[3H-indole-3,2′-[1,3]dioxane-5′5″-[1,3]dioxane-2″,3′″-[3H]indole]-2,2′″(1H,1′″H)-dione(9Cl)]", "values": [{"measurement": "cardiac recovery (cardiac ejection fraction change)", "setting": "[4]", "result": "improves cardiac recovery"}]}, {"molecule": "Wnt3a: activator of the Wnt signaling pathway (protein, UniProt P56704 19-352, looked up) Protein Wnt-3a: SYPIWWSLAVGPQYSSLGSQPILCASIPGLVPKQLRFCRNYVEIMPSVAEGIKIGIQECQHQFRGRRWNCTTVHDSLAIFGPVLDKATRESAFVHAIASAGVAFAVTRSCAEGTAAICGCSSRHQGSPGKGWKWGGCSEDIEFGGMVSREFADARENRPDARSAMNRHNNEAGRQAIASHMHLKCKCHGLSGSCEVKTCWWSQPDFRAIGDFLKDKYDSASEMVVEKHRESRGWVETLRPRYTYFKVPTERDLVYYEASPNFCEPNPETGSFGTRDRTCNVSSHGIDGCDLLCCGRGHNARAERRREKCRCVFHWCCYVSCQECTRVYDVHTCK", "values": [{"measurement": "CD90 level", "setting": "[5]; immortalized Donor2 CDCs on CellBIND (CB)-coated flasks", "result": "no such effect is observed"}, {"measurement": "CD90 level", "setting": "[5]; immortalized Donor2 CDCs on fibronectin (FN)-coated flasks", "result": "decreased the CD90 level"}]}]}
